Data on 1 molecule can be found in article doi:10.1101/2022.06.02.494630v1 (biorxiv, 2022).

For one experiment, the target named is PfPHB2 (Plasmodium falciparum, UniProt Q8IJP8). As to the kind of experiment: biochemical.
The next experiment has as its target PfPHB1 (Plasmodium falciparum, UniProt Q8IBC3). Put plainly: biochemical.

Sequence of PfPHB1 (Q8IBC3 1-272): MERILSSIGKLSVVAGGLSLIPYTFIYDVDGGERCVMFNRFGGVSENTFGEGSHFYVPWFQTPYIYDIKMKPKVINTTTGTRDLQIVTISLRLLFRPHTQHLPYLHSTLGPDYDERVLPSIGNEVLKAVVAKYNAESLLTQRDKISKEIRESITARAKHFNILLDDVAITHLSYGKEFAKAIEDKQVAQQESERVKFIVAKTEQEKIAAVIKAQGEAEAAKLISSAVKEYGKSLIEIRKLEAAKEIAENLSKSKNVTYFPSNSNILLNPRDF
Sequence of PfPHB2 (Q8IJP8 1-304): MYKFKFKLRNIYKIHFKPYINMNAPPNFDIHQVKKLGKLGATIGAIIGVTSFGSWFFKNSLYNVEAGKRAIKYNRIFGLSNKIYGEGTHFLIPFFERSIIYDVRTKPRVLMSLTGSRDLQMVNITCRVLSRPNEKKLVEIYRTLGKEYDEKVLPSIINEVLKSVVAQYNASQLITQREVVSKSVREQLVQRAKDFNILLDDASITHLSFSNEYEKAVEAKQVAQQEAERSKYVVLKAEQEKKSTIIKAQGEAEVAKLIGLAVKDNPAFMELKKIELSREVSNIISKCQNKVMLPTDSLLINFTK

As to `COc1ccc([C@@]23Oc4cc(OC)cc(OC)c4[C@]2(O)[C@H](O)[C@H](C(=O)N(C)C)[C@H]3c2ccccc2)cc1` [Roc-A], the values for the Kd on PfPHB2 and on PfPHB1 were 683 ± 21 nM and 1370 ± 600 nM, respectively.
